Values quoted from earlier work as cited in patent US20110224245A1, “Treatment Of Neurological Disorders Using Huperzine” (President and Fellows of Harvard College, priority 2008, published 2011).

Test system: 6 Hz seizures
Details: established antiepileptic drugs; cited from earlier work

Row | Compound | efficacy in the 6 Hz psychomotor seizure model
1 | NC(=O)N1c2ccccc2C=Cc2ccccc21 [carbamazepine] | limited efficacy
2 | Nc1nnc(-c2cccc(Cl)c2Cl)c(N)n1 [lamotrigine] | limited efficacy
3 | O=C1NC(=O)C(c2ccccc2)(c2ccccc2)N1 [phenyloin] | limited efficacy
4 | CC1(C)O[C@@H]2[C@@H](CO[C@@]3(COS(N)(=O)=O)OC(C)(C)O[C@@H]23)O1 [topiramate] | limited efficacy
